Data on two compounds can be found in PMC7696255, “In-Silico Identified New Natural Sortase A Inhibitors Disrupt S. aureus Biofilm Formation” (International Journal of Molecular Sciences, 2020).

Assay [1] addresses T1, S. aureus sortase A (Staphylococcus aureus, UniProt Q2FV99).
T1 construct: purchased AnaSpec AS-72229
Put plainly: SrtA enzyme inhibition FRET assay, 5-FAM/QXL 520 substrate. In kind it is biochemical. The settings on record: Sortase A IC50, 5-FAM/QXL substrate; 10 min. The protocol: (§1) The enzymatic reactions were carried out in black, low-binding polystyrene 384 well plates (Greiner Bio-One). […] SrtA was pre-incubated in the reaction buffer with compounds for 1 h at room temperature prior to the addition of the FRET substrate. Assays were performed in 50 µL reactions with 50 ng of S. aureus sortase A and 25 µM of DABCYL-LPETG-EDANS substrate or 1 µM of 5-FAM/QXL^TM 520 substrate. The inhibitory activity of the compounds was determined by monitoring the rise in fluorescence intensity over 24 h at Ex/Em = 336 nm/490 nm for the DABCYL/EDANS substrate and Ex/Em = 490 nm/520 nm for the 5-FAM/QXL 520 substrate on a Tecan Infinite M1000 Pro reader.
(§2) Raw fluorescence data were corrected for autofluorescence before computing percentage inhibition values. These percentage inhibition values were plotted against compound concentration using GraphPad Prism version 8.0 by nonlinear regression analysis using least squares fit method for IC50 determination. Testing was performed twice to ensure reproducibility of results.

The test system of a further assay is HepG2 cells. In words: Mammalian cell cytotoxicity assay (PrestoBlue). In kind it is cell-based, human. The settings on record: read-out: Mammalian cell lines IC50. The protocol: (§3) A549 and HepG2 cells were seeded at 1500 and 2500 cells per well, respectively, in 384-well microplates and incubated at 37 °C in the presence of 5% CO2. The next day, cells were treated with compounds then incubated for an additional 72 h. To assess the cytotoxic effect of the compounds PrestoBlue cell viability reagent (Life Technologies, Carlsbad, CA, USA) was used. After the 72 h incubation with compounds, the 384-well assay plates were incubated with this viability indicator dye for 2 h (A549) and 4 h (HepG2) before fluorescence reading at Ex/Em = 560 nm/590 nm on the Tecan Infinite M1000 Pro reader. Puromycin (data not shown) was used as the positive control against both cell lines. All tests were executed in triplicate on two separate experiments.

Another assay relates to A549 cells. Put plainly: Mammalian cell cytotoxicity assay (PrestoBlue). In kind it is cell-based, human. The settings on record: read-out: Mammalian cell lines IC50. The procedure: as §3
In assay [2] the target is T1, S. aureus sortase A. Put plainly: SrtA enzyme inhibition FRET assay, DABCYL-LPETG-EDANS substrate. In kind it is biochemical. The procedure:
as §1, §2

Another assay concerns S. aureus Newman. In words: S. aureus whole cell assay (MIC, microbroth dilution). The format is cell-based, Staphylococcus aureus. The settings on record: 24 h; for S. aureus MIC: Newman; for MIC: Staphylococcus aureus, NEWMAN. The procedure: (§4) Minimum inhibitory concentration (MIC) tests were performed according to procedures of the Clinical Laboratory Standards Institute (CLSI) with minor changes using the microbroth dilution technique in a 384-well setup. Inoculum of each S. aureus strain was prepared by suspending segregated colonies in sterile saline to a 0.5 McFarland standard. An inoculum of 2–8 × 10^5 CFU/mL was incubated with the compounds for 24 h at 37 °C. Gentamicin (data not shown) was incubated in the same manner as the test compounds and served as a positive control. The effect of the compounds on bacterial growth was calculated by quantifying the optical density at 600 nm on a microplate reader (Tecan, Infinite M1000, Salzburg, Austria). Dilutions of the inoculum were cultivated on agar to verify the validity of the inoculum seeding density and absence of contamination. All tests were executed in triplicate during two separate experiments.
Background: Dilution methods test growth across graded concentrations, often in twofold steps.

The test system of a further assay is S. aureus ATCC 25923. The assay is described as above. In kind it is cell-based, Staphylococcus aureus. The settings on record: for S. aureus MIC: 24 h; for MIC: Staphylococcus aureus, ATCC25923, 24 h. The protocol: as §4
In assay [3] the test system is adherence of S. aureus Newman to fibrinogen. Put plainly: Fibrinogen binding assay. The settings on record: for IC50: Staphylococcus aureus, NEWMAN, read-out: Fibrinogen adherence Inhibition IC50; for concentration giving ≥90% prevention of S. aureus Newman adherence to fibrinogen: compared to untreated wildtype strain. In kind it is cell-based, Staphylococcus aureus. The protocol: Fibrinogen binding assay was completed as described but with slight revision. A flat-bottom 96-well plate was covered with fibrinogen protein by adding 50 µL of 20 µg/mL of fibrinogen protein from bovine plasma diluted in saline and incubated at 4 °C for 24 h. The coated plates were gently rinsed twice with PBS and blocked for 60 min with 4% bovine serum albumin (BSA). The plates were then washed 3 times with PBS. For this assay, S. aureus Newman strain was cultivated in TSB at 37 °C to exponential phase (OD600 = 0.5) and then the bacterial culture was incubated with various concentrations of test compound or control for 2.5 h. Then the cells were pelleted by centrifugation at 10,000× g for 10 min, the supernatants were removed and the cell pellets stored at −20 °C. The following day, cell pellets were suspended in PBS and dispersed in 100 μL aliquots to distinct wells of fibrinogen-coated 96-well plates. After 2 h of growth at 37 °C, the bacterial supernatant was discarded and the wells were rinsed gently with 150 µl PBS. Then the bacterial cells were fixed with 2% (v/v) glutaraldehyde and incubated for 30 min at 25 °C. After a wash with PBS, bound cells were stained with 0.1% crystal violet dye for 15 min. Plates were rinsed twice again with PBS, enclosed with aluminum foil, then stored at room temperature to dry overnight. On the next day absorbance was measured at 570 nm. The results were described as the percent of adhesion inhibition normalized to the wild type control. Two independent experiments were performed in triplicate to ensure reproducibility.

In assay [4] the test system is S. aureus ATCC 33591 (MRSA) pre-formed biofilms. In words: Biofilm inhibitory assay (crystal violet), pre-formed biofilms. In kind it is cell-based, Staphylococcus aureus. The protocol:
(§5) The effectiveness of SrtA inhibitors in reducing biofilm formation and growth was assessed using the crystal violet (CV) biofilm assay with the following modifications. TSB with 2% glucose (TSB without glucose for E. coli) was inoculated with 10^5 CFU/mL of S. aureus and E. coli overnight cultures. A total of 90µl of this cell suspension was then dispensed into 96-well microtiter plates containing 10 µL of different concentrations of the SrtA inhibitors. After 24 h growth at 37 °C the plates were washed with PBS to remove unbound cells and heat fixed at 60 °C for 30 min. Next, the wells were stained with 0.1% crystal violet solution for 15 min at room temperature. At the completion of the incubation plates were washed 3 times with PBS and dried. Then the crystal violet dye from the biofilm was solubilized with 200 µL of DMSO. A total of 100 µL of this solution was then moved to a new microtiter plate for absorbance measurement at 595 nm. For pre-formed biofilm assay, the plates were prepared and incubated as mentioned earlier, without SrtA inhibitors. After 24 h incubation, the culture supernatant was removed gently and biofilm carefully washed with sterile PBS. Next, 10 µL of different concentrations of SrtA inhibitors with 90 µL of TSB with 2% glucose were added carefully into the wells and incubated at 37 °C for 24 h. The amount of crystal violet staining of biofilm was measured as described above. The results were reported as percent inhibition normalized to the wild type control. Two independent experiments were performed in triplicate to ensure reproducibility.

Assay [5] concerns E. coli ATCC 25922 biofilm formation. Put plainly: Biofilm inhibitory assay (crystal violet), biofilm formation. The settings on record: in words; CV assay. In kind it is cell-based. The protocol:
as §5, with “Next, 10 µL of different concentrations of SrtA inhibitors with 90 µL of TSB with 2% glucose were added carefully into the wells and incubated at 37 °C for 24 h.” left out, “The results were reported as percent inhibition normalized to the wild type control. Two independent experiments were performed in triplicate to ensure reproducibility.” left out

The test system of assay [6] is S. aureus ATCC 33591 (MRSA) biofilm formation. The description is as above. The format is cell-based, Staphylococcus aureus. The settings on record: for IC50: Staphylococcus aureus, S. aureus ATCC 33591 (MRSA), biofilm formation, read-out: Biofilm Inhibition IC50. The procedure: as §5
The test system of assay [7] is S. aureus Newman biofilm formation. The description is as above. The format is cell-based, Staphylococcus aureus. The settings on record: CV assay; for IC50: biofilm formation, read-out: Biofilm Inhibition IC50. The procedure: as §5
Assay [8] relates to S. aureus ATCC 33591 (MRSA). In words: S. aureus whole cell assay (MIC, microbroth dilution). The settings on record: 24 h. In kind it is cell-based, Staphylococcus aureus. The protocol: as §4
The test system of assay [9] is S. aureus Newman pre-formed biofilms. In words: Biofilm inhibitory assay (crystal violet), pre-formed biofilms. The settings on record: CV assay. The format is cell-based, Staphylococcus aureus. The procedure: as §5
Where [10] appears, read: Sortase A IC50, DABCYL-LPETG-EDANS substrate, 4 h.
Where [11] appears, read: SrtA enzymatic activity IC50, text summary, Figure 2A,B, both substrates.

Values after ≈ are worked out from the molar mass of the structure shown. Read-outs that look alike come from different tables or passages of the source.

T1 sequence (Q2FV99 whole entry): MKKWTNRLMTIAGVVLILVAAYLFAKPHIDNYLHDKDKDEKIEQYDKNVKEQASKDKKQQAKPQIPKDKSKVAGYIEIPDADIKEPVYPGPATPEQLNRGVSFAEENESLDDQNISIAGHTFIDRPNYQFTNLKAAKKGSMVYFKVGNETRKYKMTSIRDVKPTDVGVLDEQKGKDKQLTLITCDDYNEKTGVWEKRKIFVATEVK

As for `Cc1cc(O)c2c(c1)C(=O)c1c(c(O)cc(O)c1-c1c(O)cc(O)c3c1C(=O)c1cc(C)cc(O)c1C3=O)C2=O` [Compound N1287, Skyrin], the IC50 at S. aureus sortase A [1] is 31 ± 0.3 µM; in the assay on HepG2 cells (72 h), 60 to 90 µM; in the assay on HepG2 cells (Homo sapiens, HepG2, 72 h), 63.9 ± 5.1 µM; with A549 cells (72 h), 60 to 90 µM; with A549 cells (Homo sapiens, A549, 72 h), 64.7 ± 6.2 µM; at S. aureus sortase A [2] (setting [10]), 24 ± 2.1 µM. In addition, the IC50 on S. aureus sortase A [2] (setting [11]) is less than 50 µM; in assay [3], 9.5 ± 0.5 µM; in assay [6] it was 41.9 µM; in assay [7] (Staphylococcus aureus, NEWMAN), 12.2 ± 4.1 µM; in assay [7] it was 12 µM. The “S. aureus MIC” value with S. aureus Newman and in the assay with S. aureus ATCC 25923 was 5 to 8 µM in each case. For the same compound, the MIC against S. aureus Newman was found to be 7.3 ± 0.8 µM (≈ 3.93 µg/mL); with S. aureus ATCC 25923 it was 7.2 ± 0.1 µM (≈ 3.88 µg/mL). Further, the “concentration giving ≥90% prevention of S. aureus Newman adherence to fibrinogen” value in [3] amounted to 46 µM. Moreover, the “inhibitory activity on MRSA pre-formed biofilms” value in assay [4] (in words) is listed as “not against pre-formed biofilms”. Further, the “effect on E. coli ATCC 25922 biofilm formation” value in assay [5] is “did not show any effect”. Also, the “inhibitory activity on MRSA biofilm formation” value in assay [6] (in words) is recorded as “exhibited inhibitory activity”. For the same compound, in assay [7], the “concentration giving >90% inhibition of biofilm formation” value stood at 23 µM.
`CC(C)CCCc1c(O)ccc(C(=O)c2cc(Cl)c(Cl)[nH]2)c1O` [Compound N2576, (4,5-dichloro-1H-pyrrol-2-yl)-[2,4-dihydroxy-3-(4-methyl-pentyl)-phenyl]-methanone]: the IC50 was 32 ± 6.3 µM at S. aureus sortase A [1]; 60 to 90 µM with HepG2 cells (72 h); 65 ± 7.4 µM in the assay with HepG2 cells (Homo sapiens, HepG2, 72 h); 60 to 90 µM in the assay with A549 cells (72 h); 88.1 ± 13 µM in the assay on A549 cells (Homo sapiens, A549, 72 h); 47 ± 4.2 µM against S. aureus sortase A [2] (setting [10]). The IC50 was less than 50 µM against S. aureus sortase A [2] (setting [11]); 5.7 ± 0.8 µM in assay [3]; 10 µM in assay [9] (Staphylococcus aureus, pre-formed biofilms, read-out: Biofilm Inhibition IC50); greater than 200 µM in assay [4] (Staphylococcus aureus, S. aureus ATCC 33591 (MRSA), pre-formed biofilms, read-out: Biofilm Inhibition IC50); 24.8 µM in assay [6]; 2.9 µM in assay [7] (Staphylococcus aureus, NEWMAN). Moreover, the “S. aureus MIC” value is 5 to 8 µM in the assay on S. aureus Newman, 5 to 8 µM in the assay with S. aureus ATCC 25923 and 25 to 80 µM in assay [8]. Also, the MIC amounted to 5.8 ± 1.3 µM (≈ 2.07 µg/mL) against S. aureus Newman, 6.3 ± 0.1 µM (≈ 2.24 µg/mL) against S. aureus ATCC 25923 and 25.2 ± 5.5 µM (≈ 8.98 µg/mL) in assay [8] (Staphylococcus aureus). For the same compound, in assay [3], the “concentration giving ≥90% prevention of S. aureus Newman adherence to fibrinogen” value was determined as 17 µM. Besides, in assay [9], the “concentration giving >90% inhibition on preformed biofilms” value is 17 µM. Further, in assay [4] (CV assay), the “concentration giving >90% inhibition on MRSA preformed biofilms” value came to 280 µM. Also, the “effect on E. coli ATCC 25922 biofilm formation” value in assay [5] is reported as “did not show any effect”. In addition, the “concentration giving >90% inhibition on MRSA biofilm formation” value in assay [6] (CV assay) was 70 µM. Besides, in [7], the “concentration giving >90% inhibition of biofilm formation” value stood at 4.4 µM.

As a reminder, the IC50 is the point on the concentration scale where inhibition reaches its midpoint. In general, MIC refers to the lowest concentration that inhibits growth of the organism. Lower therefore signals inhibition by little substance.
